{"source": "patent US20240199604A1", "about": "“SUPRAMOLECULAR POLYMER THERAPEUTICS AND DIAGNOSTICS” (The Regents of the University of California, priority 2022, published 2024)", "data": [{"system": "tau paired-helical filaments (PHFs)", "assay": "Cryo-EM co-structure with Alzheimer's disease tau paired helical filaments", "assay_type": "binding, human", "conditions": "AD tau PHF incubated with 20 uM GTP-1, cryo-EM", "protocol": "Samples were incubated with 20 uM GTP-1 prior to vitrification. […] The micrograph images and their 2D classification reveal well-resolved filaments primarily in the PHF conformation, with crossover distances ranging from 700-800 Å. A minor population of straight filaments (SF) was also identified; however, further structural characterization was not feasible due to limited abundance. […] The PHF structure is comprised of two protofilaments related by two-fold symmetry with a 2.37 Å rise and 179.450 twist, consistent with previously reported structures of PHFs prepared from AD brains (13, 15). […]\nCryo-EM sample preparation and data collection. […] For the tau PHF, 3 μL of purified filaments mixed with GTP-1 was added to a glow-discharged 200 mesh 1.2/1.3R Au Quantifoil grid for 10 seconds before blotting for 2 seconds, and then a second 3 μL aliquot was added for 3 seconds and blotted for 1 second before being plunge frozen in liquid ethane using a FEI Vitrobot Mark IV (Thermo Fisher Scientific). For the synuclein ligands, 3 μL of purified filaments mixed with compound was added to a 200 mesh 1.2/1.3R Au Quantifoil grid coated with a 2 nm thick layer of carbon, which had not been glow discharged. […]", "values": [{"compound": "[2H]C([2H])([18F])CC1CCN(c2ccn3c(n2)nc2ccccc23)CC1", "note": "[GTP-1]", "binding site on tau filament": "bound to a solvent exposed cleft (residues 351-360)"}]}, {"biological_target": "T1, α-synuclein fibrils isolated from an MSA patient sample (Homo sapiens, UniProt P37840)", "T1 construct": "fresh-frozen tissue from the cerebellum of patients clinically and neuropathologically diagnosed with MSA; from tissue; host or cells: cerebellum of MSA patients (sarkosyl-insoluble fraction)", "assay": "Cryo-EM co-structure with α-synuclein fibrils from MSA patient samples", "assay_type": "binding", "conditions": "fibrils from MSA patient sample, cryoelectronic microscopy", "protocol": "(§1) MSA filament purification. Filament purification was based on Schweigenhauser et al., 2020^2. Briefly, 1-2 g of fresh-frozen tissue from the cerebellum of patients clinically and neuropathologically diagnosed with MSA was homogenized at 20 mL/g of tissue in 10 mM Tris-HCl (pH 7.4), 800 mM NaCl, 1 mM EGTA, and 10% sucrose. A final concentration of 1% N-laurosarcosinate (w/v) was added to the homogenates, and these mixtures were incubated at 37° C. for 30 minutes. Homogenates were then centrifuged at 10,000 g for 10 minutes, and the supernatant was kept and then centrifuged at 100,000 g for 20 minutes. The pellets were resuspended at 500 μL/g of frozen tissue in 10 mM Tris-HCl (pH 7.4), 800 mM NaCl, 1 mM EGTA, and 10% sucrose. This was followed by another centrifugation at 3,000 g for 5 minutes. The supernatant was kept and diluted threefold with 50 mM Tris-HCl (pH 7.4), 150 mM NaCl, 10% sucrose, and 2% sarkosyl, followed by another centrifugation at 150,000 g for 1 hour. The final pellet resuspended in 30 mM Tris-HCl (pH 7.4) at a concentration of […] frozen tissue.\n(§2) Cryo-EM sample preparation and data collection. Purified frontal cortex and cerebellum tissue was incubated with 20 μM ligand for 45 minutes prior to freezing. For the tau PHF, 3 μL of purified filaments mixed with GTP-1 was added to a glow-discharged 200 mesh 1.2/1.3R Au Quantifoil grid for 10 seconds before blotting for 2 seconds, and then a second 3 μL aliquot was added for 3 seconds and blotted for 1 second before being plunge frozen in liquid ethane using a FEI Vitrobot Mark IV (Thermo Fisher Scientific). For the synuclein ligands, 3 μL of purified filaments mixed with compound was added to a 200 mesh 1.2/1.3R Au Quantifoil grid coated with a 2 nm thick layer of carbon, which had not been glow discharged. After 30 seconds, grids were blotted for 7.5 seconds at room temperature and 100% humidity. Grids were plunge frozen in liquid ethane using a FEI Vitrobot Mark IV. […] A defocus range of 0.8 to 1.8 μm was used with a total exposure time of 2.024 seconds fractionated into 0.025 seconds subframes. The total dose for each movie was 46 electrons/Å^2. Movies were motion-corrected using MotionCor2^3 in Scipion^4 and were Fourier cropped by a factor of 2 to a final pixel size of 0.834 Å per pixel.\n(§3) Image processing. All image processing was done in RELION 4^5, and the same workflow was used for each dataset. Dose-weighted summed micrographs were imported into RELION 4. The contrast transfer function was estimated using CTFFIND-4.1^6. Filaments were manually picked and then segments were extracted with a box size of 900 pixels downscaled to 300 pixels. Contaminants and segments contributing to straight filaments were separated out using reference-free 2D class averaging. The remaining segments were re-extracted with a box size of 288 pixels without downscaling. An initial model was generated from a cylinder in RELION. One or more rounds of 3D classification with image alignment were performed, with helical rise and […] parameters fixed to eliminate obvious junk particles. One or more rounds of 3D auto-refinement was run using the best map from 3D classification low-pass filtered to 10 Å, allowing rise and twist parameters to vary. Maps were sharpened using the standard post-processing procedures in RELION.\n(§4) Model building, refinement, and analysis. Prior to ligand placement, a single strand of a previously solved MSA or tau PHF filament stutr^2 (PDB: 6XYQ) was refined against the density using Phenix^7. Refinement of the ligand binding pocket was done in COOT^8. Ligands were placed by hand in the density using Chimera^9. This model was then translated to give a stack spanning 5 rungs.", "values": [{"compound": "CNC(=O)c1ncc2c(-c3ccnc(C(C)(F)F)n3)nn(-c3ccc(Cl)cc3)c2n1", "note": "[Compound 22, 1-(4-chlorophenyl)-3-(2-(1,1-difluoroethyl)pyrimidin-4-yl)-N-methyl-1H-pyrazolo[3,4-d]pyrimidine-6-carboxamide]", "co-structure of supramolecular polymeric inhibitor with α-synuclein fibrils": "bound to fibrils isolated from an MSA patient sample"}, {"compound": "CNc1nc(=O)n(-c2nc(-c3cccc(C)c3)oc2-c2ccc(Cl)c(F)c2)cc1F", "note": "[Compound 83, 1-(5-(4-chloro-3-fluorophenyl)-2-(m-tolyl)oxazol-4-yl)-5-fluoro-4-(methylamino)pyrimidin-2 (1H)-one]", "co-structure of supramolecular polymeric inhibitor with α-synuclein fibrils": "bound to fibrils isolated from an MSA patient sample"}, {"compound": "CNc1nc(=O)n(-c2nc(-c3cccc(Cl)c3)oc2-c2ccc(Cl)c(F)c2)cc1F", "note": "[Compound 125, 1-(5-(4-chloro-3-fluorophenyl)-2-(3-chlorophenyl)oxazol-4-yl)-5-fluoro-4-(methylamino)pyrimidin-2 (1H)-one]", "co-structure of supramolecular polymeric inhibitor with α-synuclein fibrils": "bound to fibrils isolated from an MSA patient sample"}, {"compound": "O=C(Cn1cc(-c2ccoc2)c(=O)c2ccc(N3CCCC3)cc21)Nc1ccccc1C(F)(F)F", "note": "[Compound 149, 2-[3-(furan-3-yl)-4-oxo-7-(pyrrolidin-1-yl)-1,4-dihydroquinolin-1-yl]-N-[2-(trifluoromethyl)phenyl]acetamide]", "co-structure of supramolecular polymeric inhibitor with α-synuclein fibrils": "bound to fibrils isolated from an MSA patient sample"}, {"compound": "O=c1nc2c(ccn2C(F)(F)F)cn1-c1nc(-c2ccnc(C3CC3)n2)oc1-c1ccc(F)cc1", "note": "[compound 293]", "co-structure of supramolecular polymeric inhibitor with α-synuclein fibrils": "bound to fibrils isolated from an MSA patient sample"}, {"compound": "CNc1nc(=O)n(-c2nc(-c3cc(C)cc(C)n3)oc2-c2ccc(F)c(F)c2)cc1F", "note": "[compound 294]", "co-structure of supramolecular polymeric inhibitor with α-synuclein fibrils": "bound to fibrils isolated from an MSA patient sample"}, {"compound": "Cc1nccc2cc(-c3nc(-n4ccc5cccnc5c4=O)c(-c4ccc(C(F)(F)F)cc4)o3)ccc12", "note": "[compound 427]", "co-structure of supramolecular polymeric inhibitor with α-synuclein fibrils": "bound to fibrils isolated from an MSA patient sample"}]}, {"biological_target": "T1, α-synuclein fibrils isolated from an MSA patient sample", "assay": "Cryo-EM co-structure with α-synuclein fibrils from MSA patient samples", "assay_type": "binding", "conditions": "α-synuclein fibril from an MSA patient, SEQ ID NO: 9", "protocol": "as §1, §2, §3, §4", "values": [{"compound": "CNC(=O)c1ncc2c(-c3ccnc(C(C)(F)F)n3)nn(-c3ccc(Cl)cc3)c2n1", "note": "[Compound 22, 1-(4-chlorophenyl)-3-(2-(1,1-difluoroethyl)pyrimidin-4-yl)-N-methyl-1H-pyrazolo[3,4-d]pyrimidine-6-carboxamide]", "binding site on α-synuclein fibril": "bound to residues 86-99"}]}]}
